{
  "source": "PubChem BioAssay AID330",
  "about": "(DTP/NCI, 2004)",
  "system": "P388 leukemia ip, CD2F1 mice, survival T/C",
  "assay": "NCI In Vivo Anticancer Drug Screen. Data for tumor model P388 Leukemia (intraperitoneal) in CD2F1 (CDF1) mice",
  "settings": "endpoint: median survival time, higher = longer survival",
  "in_short": "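Mice carrying the transplanted tumor received test compound or vehicle. Survival was recorded in each group, and the value is the treated-group measurement divided by that of the vehicle-treated control group.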",
  "key": {"[1]": {"settings": "dose: 50.0 mg/kg/injection, schedule: Q01DX005 (ip), vehicle: saline with Tween-80"}, "[2]": {"settings": "dose: 100.0 mg/kg/injection, schedule: Q01DX005 (ip), vehicle: saline with Tween-80"}, "[3]": {"settings": "dose: 200.0 mg/kg/injection, schedule: Q01DX005 (ip), vehicle: saline with Tween-80"}, "[4]": {"settings": "dose: 50.0 mg/kg/injection, schedule: Q01DX005 (ip), vehicle: Klucel (hydroxypropylcellulose) (HPC)"}, "[5]": {"settings": "dose: 100.0 mg/kg/injection, schedule: Q01DX005 (ip), vehicle: Klucel (hydroxypropylcellulose) (HPC)"}, "[6]": {"settings": "dose: 3.12 mg/kg/injection, schedule: Q01DX005 (ip), vehicle: Klucel (hydroxypropylcellulose) (HPC)"}},
  "note": "“And” between values parts separate entries of the source, which are not always exact repeats. Equal entries are not always repeated. Toxic doses and inconclusive results are not listed.",
  "data": [
    {"smiles": "COc1cccc2c1C(=O)c1c(O)c3c(c(O)c1C2=O)CC(O)(C(C)=O)CC3OC1CC(NCC2(O)OCC(O)C(O)C2O)C(O)C(C)O1", "note": "(stereo not drawn)", "values": [
      {"measurement": "T/C", "setting": "dose: 3.13 mg/kg/injection, schedule: Q04DX003 (ip), vehicle: water", "result": "119 % of control"},
      {"measurement": "T/C", "setting": "dose: 6.25 mg/kg/injection, schedule: Q04DX003 (ip), vehicle: water", "result": "117 % of control"},
      {"measurement": "T/C", "setting": "dose: 12.5 mg/kg/injection, schedule: Q04DX003 (ip), vehicle: water", "result": "119 % of control"},
      {"measurement": "T/C", "setting": "dose: 25.0 mg/kg/injection, schedule: Q04DX003 (ip), vehicle: water", "result": "118 % of control"},
      {"measurement": "T/C", "setting": "dose: 200.0 mg/kg/injection, schedule: Q04DX003 (ip), vehicle: water", "result": "99 % of control"}
    ]},
    {"smiles": "CC(C)N=C1NS(=O)(=O)c2ccccc21", "values": [
      {"measurement": "T/C", "setting": "[1]", "result": "114 % of control"},
      {"measurement": "T/C", "setting": "[2]", "result": "97 % of control"},
      {"measurement": "T/C", "setting": "[3]", "result": "108 % of control"}
    ]},
    {"smiles": "Cc1nn2c(=O)c3c([N+](=O)[O-])c(C)nn3c(=O)c2c1[N+](=O)[O-]", "values": [
      {"measurement": "T/C", "setting": "[4]", "result": "105 % of control"},
      {"measurement": "T/C", "setting": "[5]", "result": "97 % of control"},
      {"measurement": "T/C", "setting": "dose: 200.0 mg/kg/injection, schedule: Q01DX005 (ip), vehicle: Klucel (hydroxypropylcellulose) (HPC)", "result": "100 % of control"}
    ]},
    {"smiles": "O=C(NC1CC1)OCc1c(COC(=O)NC2CC2)c(-c2ccc(Cl)c(Cl)c2)n2c1CCC2", "values": [
      {"measurement": "T/C", "setting": "dose: 6.25 mg/kg/injection, schedule: Q01DX009 (ip), vehicle: distilled water + Tween-80", "result": "160 % of control"},
      {"measurement": "T/C", "setting": "dose: 12.5 mg/kg/injection, schedule: Q01DX009 (ip), vehicle: distilled water + Tween-80", "result": "171 % of control and 183 % of control"},
      {"measurement": "T/C", "setting": "dose: 25.0 mg/kg/injection, schedule: Q01DX009 (ip), vehicle: distilled water + Tween-80", "result": "101 % of control and 206 % of control"}
    ]},
    {"smiles": "Cc1c(-c2ccccc2)ccnc1/C=N/NC(=S)Nc1ccccc1", "values": [
      {"measurement": "T/C", "setting": "dose: 1.56 mg/kg/injection, schedule: Q01DX009 (ip), vehicle: saline", "result": "89 % of control"},
      {"measurement": "T/C", "setting": "dose: 3.12 mg/kg/injection, schedule: Q01DX009 (ip), vehicle: saline", "result": "92 % of control"},
      {"measurement": "T/C", "setting": "dose: 6.25 mg/kg/injection, schedule: Q01DX009 (ip), vehicle: saline", "result": "88 % of control and 95 % of control"},
      {"measurement": "T/C", "setting": "dose: 25.0 mg/kg/injection, schedule: Q01DX009 (ip), vehicle: saline with Tween-80", "result": "89 % of control"},
      {"measurement": "T/C", "setting": "dose: 50.0 mg/kg/injection, schedule: Q01DX009 (ip), vehicle: saline with Tween-80", "result": "89 % of control"},
      {"measurement": "T/C", "setting": "dose: 50.0 mg/kg/injection, schedule: Q01DX009 (ip), vehicle: saline", "result": "86 % of control"}
    ]},
    {"smiles": "Cc1ccc(NP(=S)(Nc2ccc(C)cc2C)Nc2ccc(C)cc2C)c(C)c1", "values": [
      {"measurement": "T/C", "setting": "dose: 60.0 mg/kg/injection, schedule: Q01DX005 (ip), vehicle: Klucel (hydroxypropylcellulose) (HPC)", "result": "97 % of control"},
      {"measurement": "T/C", "setting": "dose: 120.0 mg/kg/injection, schedule: Q01DX005 (ip), vehicle: Klucel (hydroxypropylcellulose) (HPC)", "result": "100 % of control"},
      {"measurement": "T/C", "setting": "dose: 240.0 mg/kg/injection, schedule: Q01DX005 (ip), vehicle: Klucel (hydroxypropylcellulose) (HPC)", "result": "100 % of control"}
    ]},
    {"smiles": "C1=C(c2ccccc2)Oc2ccccc2[P+]1(c1ccccc1)c1ccccc1", "values": [
      {"measurement": "T/C", "setting": "dose: 0.78 mg/kg/injection, schedule: Q01DX005 (ip), vehicle: Klucel (hydroxypropylcellulose) (HPC)", "result": "100 % of control"},
      {"measurement": "T/C", "setting": "dose: 1.56 mg/kg/injection, schedule: Q01DX005 (ip), vehicle: Klucel (hydroxypropylcellulose) (HPC)", "result": "109 % of control"},
      {"measurement": "T/C", "setting": "[6]", "result": "99 % of control"}
    ]},
    {"smiles": "O=C1c2ccccc2C(=O)c2c(NCCCC3CCCN4CCCCC34)cccc21", "note": "(stereo not drawn)", "values": [
      {"measurement": "T/C", "setting": "[4]", "result": "105 % of control"},
      {"measurement": "T/C", "setting": "[5]", "result": "100 % of control"}
    ]},
    {"smiles": "CCN1CCCC(=O)C1", "values": [
      {"measurement": "T/C", "setting": "[1]", "result": "96 % of control"},
      {"measurement": "T/C", "setting": "[2]", "result": "101 % of control"},
      {"measurement": "T/C", "setting": "[3]", "result": "102 % of control"}
    ]},
    {"smiles": "O=C1CN(CCCN2c3ccccc3Sc3ccc(C(F)(F)F)cc32)CC(=O)N1", "values": [
      {"measurement": "T/C", "setting": "[1]", "result": "103 % of control"},
      {"measurement": "T/C", "setting": "[2]", "result": "100 % of control"},
      {"measurement": "T/C", "setting": "[3]", "result": "104 % of control"}
    ]},
    {"smiles": "c1cc(-c2[nH]c3cc(C4=NCCN4)ccc3c2-c2cc3ccc(C4=NCCN4)cc3[nH]2)ccc1C1=NCCN1", "values": [
      {"measurement": "T/C", "setting": "[6]", "result": "107 % of control"},
      {"measurement": "T/C", "setting": "dose: 6.25 mg/kg/injection, schedule: Q01DX005 (ip), vehicle: Klucel (hydroxypropylcellulose) (HPC)", "result": "96 % of control"},
      {"measurement": "T/C", "setting": "dose: 12.5 mg/kg/injection, schedule: Q01DX005 (ip), vehicle: Klucel (hydroxypropylcellulose) (HPC)", "result": "109 % of control"}
    ]},
    {"smiles": "Cc1nc2[nH]c(=S)[nH]c(=O)c2nc1C", "values": [
      {"measurement": "T/C", "setting": "dose: 100.0 mg/kg/injection, schedule: Q01DX009 (ip), vehicle: saline with Tween-80", "result": "104 % of control"},
      {"measurement": "T/C", "setting": "dose: 100.0 mg/kg/injection, schedule: Q04DX003 (ip), vehicle: saline with Tween-80", "result": "95 % of control"},
      {"measurement": "T/C", "setting": "dose: 200.0 mg/kg/injection, schedule: Q01DX009 (ip), vehicle: saline with Tween-80", "result": "100 % of control"},
      {"measurement": "T/C", "setting": "dose: 200.0 mg/kg/injection, schedule: Q04DX003 (ip), vehicle: saline with Tween-80", "result": "95 % of control"},
      {"measurement": "T/C", "setting": "dose: 400.0 mg/kg/injection, schedule: Q01DX009 (ip), vehicle: saline with Tween-80", "result": "95 % of control"},
      {"measurement": "T/C", "setting": "dose: 400.0 mg/kg/injection, schedule: Q04DX003 (ip), vehicle: saline with Tween-80", "result": "95 % of control"}
    ]}
  ]
}
